According to PubChem BioAssay AID1963869 (Molecular Pharmacology Branch, DTP, NCI, 2024):

Tested on: KRAS patient-derived spheroids with HUVEC/MSC, viability
Test: Anticancer human tumor 323965-272-R-J2-PDC patient-derived pancreatic carcinoma cell line growth inhibition [KRAS2]
Conditions: for IC50: curve of first compound; for viability, T/C: stronger effect = lower value
In short: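 KRAS-mutant tumor cells were grown as spheroids with HUVEC endothelial cells and human MSCs as stroma. Targeted agents were tested alone and with KRAS pathway inhibitors. Doses started at or near clinical Cmax, or 10 microM, descending half-log.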

[1] = second compound 0.0316 µM, first compound 0.0316 µM
[2] = second compound 0.1 µM, first compound 0.0316 µM
[3] = second compound 0.316 µM, first compound 0.0316 µM
[4] = second compound 1 µM, first compound 0.0316 µM
[5] = second compound 3.16 µM, first compound 0.0316 µM
[6] = second compound 0.0316 µM, first compound 0.1 µM
[7] = second compound 0.0316 µM, first compound 0.316 µM
[8] = second compound 0.0316 µM, first compound 1 µM
[9] = second compound 0.0316 µM, first compound 3.16 µM
[10] = second compound 0.0316 µM, first compound 10 µM
[11] = second compound 0.1 µM, first compound 0.1 µM
[12] = second compound 0.1 µM, first compound 0.316 µM
[13] = second compound 0.1 µM, first compound 1 µM
[14] = second compound 0.1 µM, first compound 3.16 µM
[15] = second compound 0.1 µM, first compound 10 µM
[16] = second compound 0.316 µM, first compound 0.1 µM
[17] = second compound 0.316 µM, first compound 0.316 µM
[18] = second compound 0.316 µM, first compound 1 µM
[19] = second compound 0.316 µM, first compound 3.16 µM
[20] = second compound 0.316 µM, first compound 10 µM
[21] = second compound 1 µM, first compound 0.1 µM
[22] = second compound 1 µM, first compound 0.316 µM
[23] = second compound 1 µM, first compound 1 µM
[24] = second compound 1 µM, first compound 3.16 µM
[25] = second compound 1 µM, first compound 10 µM
[26] = second compound 3.16 µM, first compound 0.1 µM
[27] = second compound 3.16 µM, first compound 0.316 µM
[28] = second compound 3.16 µM, first compound 1 µM
[29] = second compound 3.16 µM, first compound 3.16 µM
[30] = second compound 3.16 µM, first compound 10 µM
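Further: spheroids exposed to agents for 7 days.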
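Wherever viability, T/C is given: 100% = DMSO vehicle control viability.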

CC(=O)Nc1cccc(-n2c(=O)n(C3CC3)c(=O)c3c(Nc4ccc(I)cc4F)n(C)c(=O)c(C)c32)c1 + C=CC(=O)N1CCN(c2nc(OCC3CCCN3C)nc3c2CCN(c2cccc4cccc(C)c24)C3)CC1CC#N
IC50 (second compound 0.0316 µM): 0.00171 µM
IC50 (second compound 0.1 µM): 0.000644 µM
IC50 (second compound 0.316 µM): 0.000255 µM
IC50 (second compound 1 µM): 0.000361 µM
IC50 (second compound 3.16 µM): < 0.0001 µM
viability, T/C (second compound 0.0316 µM, first compound 0.0001 µM): 62.1%
viability, T/C (second compound 0.0316 µM, first compound 0.000316 µM): 63.8%
viability, T/C (second compound 0.0316 µM, first compound 0.001 µM): 53.4%
viability, T/C (second compound 0.0316 µM, first compound 0.00316 µM): 44%
viability, T/C (second compound 0.0316 µM, first compound 0.01 µM): 34.1%
viability, T/C [1]: 23.9%
viability, T/C (second compound 0.1 µM, first compound 0.0001 µM): 64.4%
viability, T/C (second compound 0.1 µM, first compound 0.000316 µM): 56.8%
viability, T/C (second compound 0.1 µM, first compound 0.001 µM): 46.8%
viability, T/C (second compound 0.1 µM, first compound 0.00316 µM): 35.4%
viability, T/C (second compound 0.1 µM, first compound 0.01 µM): 32.1%
viability, T/C [2]: 22.7%
viability, T/C (second compound 0.316 µM, first compound 0.0001 µM): 56.7%
viability, T/C (second compound 0.316 µM, first compound 0.000316 µM): 46.6%
viability, T/C (second compound 0.316 µM, first compound 0.001 µM): 43.6%
viability, T/C (second compound 0.316 µM, first compound 0.00316 µM): 31.6%
viability, T/C (second compound 0.316 µM, first compound 0.01 µM): 27.4%
viability, T/C [3]: 18.8%
viability, T/C (second compound 1 µM, first compound 0.0001 µM): 56.6%
viability, T/C (second compound 1 µM, first compound 0.000316 µM): 53.8%
viability, T/C (second compound 1 µM, first compound 0.001 µM): 40%
viability, T/C (second compound 1 µM, first compound 0.00316 µM): 37.2%
viability, T/C (second compound 1 µM, first compound 0.01 µM): 28.3%
viability, T/C [4]: 18.9%
viability, T/C (second compound 3.16 µM, first compound 0.0001 µM): 26%
viability, T/C (second compound 3.16 µM, first compound 0.000316 µM): 28.5%
viability, T/C (second compound 3.16 µM, first compound 0.001 µM): 17%
viability, T/C (second compound 3.16 µM, first compound 0.00316 µM): 22.4%
viability, T/C (second compound 3.16 µM, first compound 0.01 µM): 4.06%
viability, T/C [5]: 5.52%

COC(=O)c1ccc2c(C(=Nc3ccc(N(C)C(=O)CN4CCN(C)CC4)cc3)c3ccccc3)c(O)[nH]c2c1 + C=CC(=O)N1CCN(c2nc(OCC3CCCN3C)nc3c2CCN(c2cccc4cccc(C)c24)C3)CC1CC#N
IC50 (second compound 0.0316 µM): 1.64 µM
IC50 (second compound 0.1 µM): 0.993 µM
IC50 (second compound 0.316 µM): 0.388 µM
IC50 (second compound 1 µM): 0.873 µM
IC50 (second compound 3.16 µM): < 0.0316 µM
viability, T/C [1]: 76.7%
viability, T/C [6]: 73.2%
viability, T/C [7]: 69.8%
viability, T/C [8]: 61.8%
viability, T/C [9]: 35.4%
viability, T/C [10]: 19.6%
viability, T/C [2]: 66.7%
viability, T/C [11]: 68.8%
viability, T/C [12]: 65.8%
viability, T/C [13]: 49.3%
viability, T/C [14]: 28.1%
viability, T/C [15]: 19.7%
viability, T/C [3]: 63.8%
viability, T/C [16]: 67.3%
viability, T/C [17]: 49.6%
viability, T/C [18]: 38.3%
viability, T/C [19]: 20.6%
viability, T/C [20]: 18.2%
viability, T/C [4]: 64.9%
viability, T/C [21]: 62.8%
viability, T/C [22]: 58.4%
viability, T/C [23]: 49.5%
viability, T/C [24]: 23.4%
viability, T/C [25]: 16.8%
viability, T/C [5]: 26.2%
viability, T/C [26]: 25.4%
viability, T/C [27]: 30%
viability, T/C [28]: 15.6%
viability, T/C [29]: 9.71%
viability, T/C [30]: 5.57%

COc1cc(Nc2ncc3c(n2)-c2ccc(Cl)cc2C(c2c(F)cccc2OC)=NC3)ccc1C(=O)O + C=CC(=O)N1CCN(c2nc(OCC3CCCN3C)nc3c2CCN(c2cccc4cccc(C)c24)C3)CC1CC#N
IC50 (second compound 0.0316 µM): < 0.0316 µM
IC50 (second compound 0.1 µM): 0.0494 µM
IC50 (second compound 0.316 µM): < 0.0316 µM
IC50 (second compound 1 µM): < 0.0316 µM
IC50 (second compound 3.16 µM): < 0.0316 µM
viability, T/C [1]: 60.1%
viability, T/C [6]: 43.8%
viability, T/C [7]: 31.4%
viability, T/C [8]: 36.3%
viability, T/C [9]: 46%
viability, T/C [10]: 56.2%
viability, T/C [2]: 58.1%
viability, T/C [11]: 35.9%
viability, T/C [12]: 29.7%
viability, T/C [13]: 30.7%
viability, T/C [14]: 39.4%
viability, T/C [15]: 48.8%
viability, T/C [3]: 48.5%
viability, T/C [16]: 33.3%
viability, T/C [17]: 26.6%
viability, T/C [18]: 27.8%
viability, T/C [19]: 35.8%
viability, T/C [20]: 43.5%
viability, T/C [4]: 55.3%
viability, T/C [21]: 32.6%
viability, T/C [22]: 20.4%
viability, T/C [23]: 30.5%
viability, T/C [24]: 38.6%
viability, T/C [25]: 46.6%
viability, T/C [5]: 21.1%
viability, T/C [26]: 13.2%
viability, T/C [27]: 10.3%
viability, T/C [28]: 19%
viability, T/C [29]: 20.5%
viability, T/C [30]: 15.5%

O=C(c1cc(Cc2n[nH]c(=O)c3ccccc23)ccc1F)N1CCN(C(=O)C2CC2)CC1 + C=CC(=O)N1CCN(c2nc(OCC3CCCN3C)nc3c2CCN(c2cccc4cccc(C)c24)C3)CC1CC#N
IC50 (second compound 0.0316 µM): 8.15 µM
IC50 (second compound 0.1 µM): > 10 µM
IC50 (second compound 0.316 µM): 4.29 µM
IC50 (second compound 1 µM): 6.24 µM
IC50 (second compound 3.16 µM): < 0.0316 µM
viability, T/C [1]: 79.1%
viability, T/C [6]: 77.5%
viability, T/C [7]: 76.1%
viability, T/C [8]: 71.6%
viability, T/C [9]: 74.3%
viability, T/C [10]: 44.9%
viability, T/C [2]: 61.4%
viability, T/C [11]: 64.6%
viability, T/C [12]: 61.8%
viability, T/C [13]: 60.4%
viability, T/C [14]: 57.5%
viability, T/C [15]: 48.5%
viability, T/C [3]: 57.8%
viability, T/C [16]: 60.1%
viability, T/C [17]: 55.4%
viability, T/C [18]: 58%
viability, T/C [19]: 51.8%
viability, T/C [20]: 43.1%
viability, T/C [4]: 61.6%
viability, T/C [21]: 63.5%
viability, T/C [22]: 63.3%
viability, T/C [23]: 59.7%
viability, T/C [24]: 50.8%
viability, T/C [25]: 48.3%
viability, T/C [5]: 33.7%
viability, T/C [26]: 27.4%
viability, T/C [27]: 25.1%
viability, T/C [28]: 31.8%
viability, T/C [29]: 34.7%
viability, T/C [30]: 25.1%
